Patent US10696971B2, “MrgprX2/MrgprB2 expressing cell based assay to detect pseudo-allergic drug reactions and to identify blockers to prevent the adverse reactions” (The Johns Hopkins University, priority 2014, dated 2020)

Legend:
LAD2 human mast cells = experiment: LAD2 degranulation assay (β-hexosaminidase release), with MrgprX2 siRNA knockdown; assay type: cell-based; settings: compound 48/80 0.1, mastoparan 5, icatibant 10, atracurium 25, ciprofloxacin 75 μg/ml
Protocol: LAD2 cells were sensitized for 20 hours with 0.5 μg/ml biotin-conjugated human IgE (Abbiotec). Cells were washed, resuspended in Hepes buffer (10 mM HEPES, 137 mM NaCl, 2.7 mM KCl, 0.38 mM Na2HPO4.7H2O, 5.6 mM glucose, 1.8 mM CaCl2.H2O, 1.3 mM MgSO4.7H2O, 0.4% BSA, pH 7.4) at 0.025×10^6 per well, and then stimulated with 0.1 μg/ml streptavidin (Life Technologies) or other agonists at the indicated concentrations for 30 minutes at 37° C./5% CO2. The β-hexosaminidase released into the supernatants and in cell lysates was quantified by hydrolysis of p-nitrophenyl N-acetyl-β-D-glucosamide (Sigma-Aldrich) in 0.1 M sodium citrate buffer (pH 4.5) for 90 minutes at 37° C. The percentage of β-hexosaminidase release was calculated as a percent of total content.
LAD2 cells were washed with medium, suspended at 0.5×10^6 cells per well, and transfected with 100 nm MrgprX2 siRNA and control siRNA in antibiotic-free StemPro medium using Lipofectamine 3000 (Life Technologies) according to the manufacturer's instruction at 37° C./5% CO2. At 48 hours, knockdown was confirmed by reverse-transcriptase PCR, and the cells were used for degranulation assays.

WT and MrgprB2^MUT mice [1] = experiment: Systemic anaphylaxis assay (body core temperature); assay type: in vivo, mouse; settings: ciprofloxacin i.v. 1.5 mg in 125 μl saline after propranolol, much smaller drop in MrgprB2^MUT
Protocol: To minimize stress, animals were transported to the procedure area the day before injections. Adult male and female mice up to 8 months of age (25 to 35 grams) were given an intraperitoneal injection of 80 μg propranolol in saline (2 mg/ml) immediately after removal from their cages, and then placed back in their cages for 30 minutes before intravenous injections. The intravenous injections were performed on one mouse at a time. For each injection, a mouse was placed in a transport box and brought to a room with no other mice, to minimize stress from vocalizations during injection. The mouse was then placed in a restrainer, and the injection was performed within 4 minutes of restraint because it was observed that longer restraint times affected body core temperature independent from the injection. […] The injection was determined to be successful only when all of the criteria were met: blood appeared in the syringe after needle insertion, all tail veins were visible after injection, and the mouse bled slightly from the injection site after needle withdrawal. The injection site was swabbed until blood stopped flowing, the mouse was placed in a separate cage from its housing cage, one mouse per cage, and returned to the room it was brought from. […] Body core temperature was measured with a rectal thermometer.

peritoneal mast cells = experiment: Mouse peritoneal mast cell histamine release assay; assay type: cell-based; settings: WT vs MrgprB2^MUT peritoneal mast cells
Protocol: Mast cells were purified as with the calcium imaging assay and allowed to recover for 2 hours in DMEM with 10% FBS and 25 ng/ml mouse stem cell factor in a 37° C. incubator with 5% CO2. Cells were then spun down, resuspended in CIB, counted, and plated at 300 cells/well in 75 μl CIB in 96-well plates coated with 20 μg/ml fibronectin (Sigma). They were allowed to adhere to the substrate for 45 minutes at 37° C. in atmospheric conditions (i.e. CO2 levels were not adjusted) before assay. […] After 5 minutes, 40 μl of supernatant was aspirated, diluted with 40 μl CIB and frozen at −80° C. until histamine levels were determined. Anti-IgE treatment was similar, except that cells were incubated for 30 minutes at 37° C. after anti-IgE was added before aspiration of supernatant. Histamine content was determined by using an HTRF histamine assay kit (Cisbio Assays) according to the manufacturer's instructions.

WT and MrgprB2^MUT mice [2] = experiment: Hindpaw swelling and Evans Blue extravasation; assay type: in vivo, mouse
Protocol: Adult male mice up to 8 months of age were anesthetized with an i.p. injection of 50 mg/kg pentobarbital (Sigma). 15 minutes after induction of anesthesia, mice were injected i.v. with 50 μl of 12.5 mg/ml Evans Blue (Sigma) in saline. 5 minutes later, 5 μl of the test substance (or 7 μl of anti-IgE) was administered by intraplantar injection in one paw and saline was administered in the other paw. Paw thickness was measured by calipers immediately after injection. 15 minutes later (30 minutes after anti-IgE), paw thickness was measured again and mice were sacrificed by decapitation. Paw tissue was collected, dried for 24 hours at 50° C., and weighed. Evans Blue was extracted by a 24 hour incubation in formamide at 50° C., and the O.D. was read at 620 nm using a spectrophotometer. For studies using ketotifen, mice were injected i.p. with 25 μl of a 10 mg/ml solution of ketotifen at the same time as pentobarbital.

| SMILES | β-hexosaminidase release in MrgprX2 siRNA vs control siRNA cells (LAD2 human mast cells) | change in body temperature (WT and MrgprB2^MUT mice [1]) | histamine release from WT peritoneal mast cells (MrgprB2^MUT released substantially less) (peritoneal mast cells) | hindpaw extravasation and swelling in WT mice but not in MrgprB2^MUT mice (WT and MrgprB2^MUT mice [2]; icatibant at the clinical concentration, intraplantar 10 mg/ml, 5 μl, 15 minutes) | increase in paw thickness, without ketotifen (WT and MrgprB2^MUT mice [2]; icatibant intraplantar, no ketotifen pretreatment, n=4) |
| --- | --- | --- | --- | --- | --- |
| O=C(O)c1cn(C2CC2)c2cc(N3CCNCC3)c(F)cc2c1=O [ciprofloxacin] | significantly reduced | induced a rapid drop in body temperature | induced histamine release |  |  |
| NC(N)=NCCC[C@@H](N)C(=O)N[C@@H](CCCN=C(N)N)C(=O)N1CCC[C@H]1C(=O)N1C[C@H](O)C[C@H]1C(=O)NCC(=O)N[C@@H](Cc1cccs1)C(=O)N[C@@H](CO)C(=O)N1Cc2ccccc2C[C@@H]1C(=O)N1[C@H](C(=O)N[C@@H](CCCN=C(N)N)C(=O)O)C[C@@H]2CCCC[C@@H]21 [icatibant] | significantly reduced |  | induced histamine release | induced extensive extravasation and swelling | 40.7±2.1% |
